{"source": "patent US20220273590A1", "about": "“COMPOUNDS FOR PREVENTION AND TREATMENT OF POST-OPERATIVE COGNITIVE DYSFUNCTION” (ABREXA PHARMACEUTICALS, INC., priority 2019, published 2022)", "key": {"[1]": {"assay": "Plasma levels of J147 at the time of surgery", "format": "in vivo, Wistar rats", "settings": "absence of an appropriate peak taken as zero", "experimental": "Male Wistar rats (˜350 g) were randomly divided into 4 experimental groups; non-surgery; control abdominal surgery; surgery+acute J147 treatment (7 mg/rat by gavage, 4-5 hours before surgery); surgery+chronic J147 (500 mg/kg food, 1 week before surgery until the end of the study). Timed blood samples were collected. Days 9-11 post surgery, general behavior (Open field: OF) and cognitive performance (Novel Object/Novel Location Recognition: NOR/NLR; Morris Water Maze: MWM) were tested. Day 14, rats were sacrificed and blood and brain tissue were collected for further analyses. (Neuro)inflammation was examined by circulating cytokine levels and microglia activation in the brain.\nOne week before surgery, chronic treatment J147 treatment started and continued until the end of the experiment. The day of surgery, rats for acute treatment received their J147 (4-5 hours before surgery) by gavage, while the designated control rats received vehicle gavage. Rats were subjected to abdominal surgery, and allowed to recover. After that rats were housed individually. […] The first week post-surgery, rats were weighed daily and food intake was measured. […]\nFor chronic oral treatment, J147 was added to the food (Teklad 2018, Envigo) at a concentration of 500 mg/kg. […] After surgery food intake was measured daily during the last hour of the light phase. […]"}, "animal model of POCD": {"tested_on": "animal model of POCD", "assay": "Open Field test after abdominal surgery", "format": "in vivo, Wistar rats", "experimental": "Male Wistar rats (˜350 g) were randomly divided into 4 experimental groups; non-surgery; control abdominal surgery; surgery+acute J147 treatment (7 mg/rat by gavage, 4-5 hours before surgery); surgery+chronic J147 (500 mg/kg food, 1 week before surgery until the end of the study). Timed blood samples were collected. Days 9-11 post surgery, general behavior (Open field: OF) and cognitive performance (Novel Object/Novel Location Recognition: NOR/NLR; Morris Water Maze: MWM) were tested. Day 14, rats were sacrificed and blood and brain tissue were collected for further analyses. (Neuro)inflammation was examined by circulating cytokine levels and microglia activation in the brain. Abdominal surgery was performed as described previously by Hovens et al., 2014. Rats were anaesthetized using sevoflurane (±2.5% in air/O2=2/1) and received 0.01 mg/kg buprenorphine s.c. A heating blanket was used to preserve body temperature. An incision was made along the linea alba and the intestines were exteriorised. The upper mesenteric artery was isolated from surrounding tissue and clamped for a period of 30 minutes during which the intestines and surgical wound were covered with gauze soaked in saline, to prevent dehydration. During this time the animals were equipped with an indwelling jugular vein catheter to mimic insertion of a venous line in patients and allow timed blood sampling. For that, an incision was made at the subclavical region, the jugular vein was freed from surrounding tissue and a catheter was introduced and advanced into the vena cava, just above the right atrium. The other end of the catheter was guided subcutaneously to the head, and fixated on the skull with dental cement. The catheter was filled with PVP dissolved in heparin solution and closed with a plastic plug. After subsequent removal of the mesenteric artery clamp, the intestines were gently placed back and the abdominal wall and skin were closed separately by sutures. Clamping and reperfusion were visually verified by absence or presence of pulsation in the mesenteric artery distal to the clamp site. From induction to recovery, the procedure takes approximately 60 minutes. Post-operatively, the animals were allowed to recover and subsequently were housed individually. Rats were weighed daily at the last hour of the dark period. Maximal weight loss within the first 5 days post-surgery was taken as measure of experienced severity of surgery. Behavioral tests were performed in the dark (active) period of the rats. […] The movement as well as location of the rat was recorded as time in corner, walls and center, number of visits in the center and the distance walked, and analyzed with Ethovision (Noldus, the Netherlands). Rearing behavior was analyzed by Eline. […]"}}, "data": [{"smiles": "COc1cccc(/C=N/N(C(=O)C(F)(F)F)c2ccc(C)cc2C)c1", "note": "[J147]", "values": [{"measurement": "mean concentration of J147 in plasma during surgery", "setting": "[1]; acute J147, 7 mg/rat by gavage 4-5 hours before surgery", "value": 3.103, "unit": "ng/mL"}, {"measurement": "concentration at 1 week", "setting": "[1]; male, Wistar, rat, plasma, oral, chronic J147, 500 mg/kg food from 1 week before surgery, read-out: mean concentration of J147 in plasma during surgery", "value": 0.233, "unit": "ng/mL"}, {"measurement": "Open field: effect of treatment on time in the center area or distance walked", "setting": "animal model of POCD; acute or chronic J147, surgery rats", "value": "no significant effects"}, {"measurement": "Open field: rearing behavior", "setting": "animal model of POCD; surgery + chronic J147", "value": "significantly more rearing behavior"}, {"measurement": "Open field: visits to the center area", "setting": "animal model of POCD; surgery + chronic J147", "value": "significantly more often"}, {"measurement": "Open field: time in the center", "setting": "animal model of POCD; surgery + chronic J147, versus the other groups", "value": "tend to spend more time in the center"}]}]}
